# According to PMC8778678 (Viruses, 2022):
# Entries after “also recorded” stand apart in the source; their conditions may differ. Like-named read-outs stand apart in the source and are kept apart here.
# Columns and labels:
# [1] = in vitro; details: African green monkey, CC50 (half-maximal cytotoxic concentration)
# [2] = tested on: Vero E6 cells; details: African green monkey
# [3] = tested on: SARS-CoV-2-infected Vero E6 cells; assay: Immunofluorescence assays; assay type: cell-based, African green monkey; details: IHUMI-6, MOI 0.1, 48 h post-infection, versus infected untreated, p = 0.03
# [4] = tested on: cathepsin L (CTSL); parameters: method as in ref 16, 33 = [16]; details: cited from earlier work
# [5] = tested on: cathepsin B (CTSB); parameters: method as in ref 16, 33 = [16]; details: cited from earlier work
# [6] = tested on: SARS-CoV-2-infected Vero E6 cells; assay type: cell-based; details: 4 µM, 2 h, then IHUMI-6 infection 24 h
# [7] = tested on: SARS-CoV-2 IHUMI-6 strain; assay: microbe, parasite or virus in culture; assay type: cell-based
# [8] = tested on: SARS-CoV-2 hCoV-19_IPL_France strain; assay type: cell-based; details: Vero E6-TMPRSS2 cells, MOI 0.025, 16 h, increasing doses
# [9] = tested on: SARS-CoV-2 hCoV-19_IPL_France strain; assay type: cell-based; details: wild-type Vero E6 cells, MOI 0.025, 16 h, increasing doses
# [10] = tested on: SARS-CoV-2 BetaCoV/France/IDF0372/2020 strain; parameters: species or system K18-hACE2 mouse; details: mouse, in vivo
# [11] = tested on: autophagic flux in Vero E6 cells; assay: Western blot of autophagy markers LC3-II and p62 with or without Baf A1; assay type: cell-based, African green monkey; details: uninfected Vero E6 cells, 24 h, with or without Baf A1 for the last 4 h, normalized to GAPDH
# [12] = in vitro; details: human
# [13] = tested on: SARS-CoV-2 IHUMI-6 strain; assay type: cell-based; details: Vero E6 cells, according to the strain used
# [14] = tested on: SARS-CoV-2; parameters: method as in ref 28 = [28]; details: Vero E6 system; read-out: EC50, SARS-CoV-2 cytopathic effect; cited from earlier work
structure (smiles),measurement,setting,value
"CCN(CC)CCCC(C)Nc1ccnc2cc(Cl)ccc12 (centres unmarked) [Chloroquine, chloroquine]",CC50,[1],73.2 µM
same,CC50,[2],73.2 µM
"CC(C)(C)NC1CCN(c2cc(NCc3ccc(Cl)cc3)nc3ccccc23)CC1 [GNS561, Ezurpimtrostat]",LC3B signal (LC3B clusters),[3],enhanced
same,enzymatic activity of cathepsin L,[4],significantly impair
same,enzymatic activity of cathepsin B,[5],significantly impair
same,volume (area) of autophagic vacuoles in the cytoplasm,[6],increase in the volume of autophagic vacuoles
same,selectivity index,[7],moderate
same,EC50,"[7]; Severe acute respiratory syndrome coronavirus 2, in Homo sapiens, human lung Calu-3 cells, IHUMI-6 strain, 48 h, read-out: EC50 antiviral activity",1.1 µM
same,SARS-CoV-2 N protein level compared to untreated,[8],did not alter the N protein level
same,SARS-CoV-2 N protein level compared to untreated,[9],did not alter the N protein level
same,lung SARS-CoV-2 viral load,[10],decline in SARS-CoV-2 virions in the lungs; also recorded: downward trend; also recorded: moderate
same,"lung tissue ultrastructure (autophagic vacuoles, multilamellar bodies)",[10],autophagic vacuole accumulation with increased electron density
same,Normalized LC3-II protein expression,[11],increased in a dose-dependent manner
same,p62 protein level,[11],The same observation
same,CC50 at 48 h,[12],4.6 µM
same,inhibitory concentration relative to remdesivir,[13],50.5–200 times
Cc1ccc(NCCN(C)CCNc2ccnc3cc(Cl)ccc23)c2c(=O)c3ccccc3sc12 [ROC-325],EC50,[14],3.28 µM
